How the values were obtained:
CD8+ T cells [1] = assay: IFNγ ELISPOT, ZIKV-infected Ifnar-/- HLA-B*0702 transgenic mice; assay type: cell-based, mouse; details: HLA-B*0702 mice; for SFC/10^6 CD8+ T cells, FSS13025: 7 days after 1×10^2 FFU ZIKV FSS13025; for SFC/10^6 CD8+ T cells, MR766: 7 days after 1×10^2 FFU ZIKV MR766; for immunodominance in IFNγ ELISPOT: immunodominant: >500 SFCs/10^6 CD8+ T cells, shared by both ZIKV strains
Summary of the method: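 Mice were infected retro-orbitally with 1×10^2 FFU ZIKV (FSS13025 or MR766), and splenic CD8+ T cells were isolated 7 days later. 2×10^5 cells were stimulated 20 h with 1×10^5 LPS-blasts loaded with 10 μg peptide, in triplicate. Output is SFC/10^6 CD8+ T cells; positive if net >20 and stimulation index >2.0.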

CD8+ T cells [2] = assay: ICS, DENV2-immune Ifnar-/- HLA-B*0702 mice challenged with ZIKV FSS13025; assay type: cell-based, mouse; details: day 3 after ZIKV FSS13025 challenge
Procedure: Two ZIKV strains, MR766 (Uganda, 1947) and FSS13025 (Cambodia, 2010), were obtained from the World Reference Center for Emerging Viruses and Arboviruses (WRCEVA). The mouse-adapted DENV2 strain S221 is a triple-plaque purified clone derived from DENV2 D2S1038. Both ZIKV and DENV2 were amplified in C6/36 mosquito cells, and viral titers were measured using baby hamster kidney (BHK)-21 cell-based focus forming assay (FFA). For epitope screening, 5-week old mice (female or male) were infected retro-orbitally (R.O.) with either 1×102 FFU of ZIKV FSS13025 or ZIKV MR766, or 2×10^4 FFU of DENV2 S221 in 200 μl 10% FBS/PBS. Seven days after infection, CD8^+ T cells were isolated from splenocytes and used for ELISPOT assay, while the splenocytes were directly used for ICS assay. Additionally, 5-week old mice were inoculated I.P. with 2×10^3 FFU of DENV2 S221 for 4 weeks.
Spleens were harvested from virus-infected, mock-immunized, or peptide-immunized mice. 1×10^6 splenocytes were plated in each well of 96-well U-bottom plates and stimulated with individual peptide (10 μg crude peptide or 1 μg pure peptide per well) for 6 hours. Five hours before the end of incubation, Brefeldin A (GolgiPlug; BD Biosciences) and PE-conjugated anti CD107a mAb (clone 1D4B, eBioscience) were added to the cells. Splenocytes stimulated with PMA-ionomycin were used as the positive control, while cells without any stimulation were the negative control. After incubation, cells were first stained with PERCPCY™ 5.5-conjugated anti-CD3 mAb (Clone 145-2C11, TONBO), PE-CY7™-conjugated anti-CD8 mAb (clone 53-67, BD Biosciences), EFLUOR™ 450-conjugated anti-CD44 mAb (clone IM7, eBioscience), and APC eFluor 780-conjugated anti-CD62L mAb (clone Mel-14, eBioscience). Cells were then fixed and permeabilized using CYTOFIX/CYTOPERM™ solution (BD Biosciences), followed by staining with FITC-conjugated anti-IFNγ mAb (clone XMG 1.2, TONBO) and APC-conjugated anti-TNFα mAb (clone MP6-XT22, eBioscience). Samples were run using an LSR™ II (BD Biosciences) and analyzed using FLOWJO™ software X 10.0.7 (Tree Star, Ashland, Oreg.).
The following results are with respect to FIG. 11 to FIG. 11E, where Ifnar^−/− HLA-B*0702 transgenic mice were inoculated I.P. with 2×10^3 FFU of DENV2 strain S221 for 4 weeks. Naive mice (n=5) and DENV2 strain S221-immune mice (n=5) were challenged R.O. with 1×10^4 FU of ZIKV FSS13025 for three days, and the percentages of peptide-specific IFNγ^+ and/or TNFα^+ CD8^+ T cells were detected by ICS (FIG. 11A and FIG. 11B). […] Data were expressed as mean±SEM. *, P<0.05; **, P<0.01; Two-tailed ann-Whitney test. Black “*” indicates ZIKV-specific response while bold “*” represents ZIKV/DENV cross-reactive response. All positive peptides were grouped according the ZIKV specificity of immune response (FIG. 11E). Numbers in parentheses indicate the number of positive peptides in this group.

## RPALLVSFIF [FSS/MR-NS2A75-84]
CD8+ T cells [1]
  SFC/10^6 CD8+ T cells, FSS13025: 713 SFC/10^6 CD8+ T cells
  SFC/10^6 CD8+ T cells, MR766: 582 SFC/10^6 CD8+ T cells
  immunodominance in IFNγ ELISPOT: immunodominant
CD8+ T cells [2]
  IFNγ and TNFα double-positive epitope-specific CD8+ T cells: double-positive with expression of both IFNγ and TNFα
  percentage of epitope-specific IFNγ-producing CD8+ T cells: 0.44±0.24%

## KPRWMDARV [FSS/MR-NS3574-582]
CD8+ T cells [1]
  SFC/10^6 CD8+ T cells, FSS13025: 969 SFC/10^6 CD8+ T cells
  SFC/10^6 CD8+ T cells, MR766: 1095 SFC/10^6 CD8+ T cells
  immunodominance in IFNγ ELISPOT: immunodominant
CD8+ T cells [2]
  IFNγ and TNFα double-positive epitope-specific CD8+ T cells: double-positive with expression of both IFNγ and TNFα
  percentage of epitope-specific IFNγ-producing CD8+ T cells: 2.61±1.19%

Reference: US11806393B2, “Flavivirus peptide sequences, epitopes, and methods and uses thereof” (priority 2017, dated 2023)
